≈ marks a conversion by molar mass, not a printed value.
Key:
[1] = system: Mycobacterium tuberculosis; experiment: Antimycobacterial activity against isoniazid/rifampicin-resistant Mycobacterium tuberculosis isolate 16995 after 7 days by microplate alamar blue assay; format: functional; conditions: isolate 16995, 168 h
[2] = system: Mycobacterium tuberculosis; experiment: Antimycobacterial activity against isoniazid/rifampicin-resistant Mycobacterium tuberculosis isolate 16833 after 7 days by microplate alamar blue assay; format: functional; conditions: isolate 16833, 168 h

CCc1nc2ccc(Cl)cn2c1C(=O)NCc1ccc2c(c1)CCN(Cc1ccc(C(F)(F)F)cn1)C2
MIC [1]: 0.046 µM (≈ 0.0243 µg/mL)
MIC [2]: 0.049 µM (≈ 0.0259 µg/mL)

CCc1nc2ccc(Cl)cn2c1C(=O)NCc1ccc2c(c1)CCN(Cc1cc(F)cc(F)c1)C2
MIC [1]: < 0.035 µM
MIC [2]: < 0.035 µM

CCc1nc2ccc(Cl)cn2c1C(=O)NCc1ccc2c(c1)CCN(Cc1ccc(F)cc1)C2
MIC [1]: < 0.035 µM
MIC [2]: < 0.035 µM

CCc1nc2ccc(Cl)cn2c1C(=O)NCc1ccc2c(c1)CCN(CCc1ccc(C(F)(F)F)cn1)C2
MIC [1]: < 0.035 µM
MIC [2]: < 0.035 µM

CCc1nc2cc(Cl)ccn2c1C(=O)NCc1ccc2c(c1)CCN(Cc1ccc(C(C)(C)C)cc1)C2
MIC [1]: < 0.035 µM
MIC [2]: < 0.035 µM

CCc1nc2ccc(Cl)cn2c1C(=O)NCc1ccc2c(c1)CCN(Cc1ccc(C(F)(F)F)cc1)C2
MIC [1]: < 0.035 µM
MIC [2]: < 0.035 µM

CCc1nc2cc(Cl)ccn2c1C(=O)NCc1ccc2c(c1)CCN(Cc1cc(F)cc(F)c1)C2
MIC [1]: 0.11 µM (≈ 0.0544 µg/mL)
MIC [2]: 0.095 µM (≈ 0.047 µg/mL)

CCc1nc2cc(Cl)ccn2c1C(=O)NCc1ccc2c(c1)CCN(Cc1ccc(OC)cc1)C2
MIC [1]: 0.9 µM (≈ 0.44 µg/mL)
MIC [2]: 0.096 µM (≈ 0.0469 µg/mL)

CCc1nc2ccc(Cl)cn2c1C(=O)NCc1ccc2c(c1)CCN(Cc1ccc(Br)cc1)C2
MIC [1]: < 0.035 µM
MIC [2]: < 0.035 µM

CCc1nc2ccc(Cl)cn2c1C(=O)NCc1ccc2c(c1)CN(C(C)c1ccc(OC(F)(F)F)cc1)C2 (centres undefined)
MIC [1]: < 0.035 µM
MIC [2]: < 0.035 µM

CCc1nc2ccc(Cl)cn2c1C(=O)NCc1ccc2c(c1)CCN(Cc1ccc(C(C)(C)C)cc1)C2
MIC [1]: < 0.035 µM
MIC [2]: < 0.035 µM

CCc1nc2ccc(Cl)cn2c1C(=O)NCc1ccc2c(c1)CCN(Cc1ccc(C)cc1)C2
MIC [1]: < 0.035 µM
MIC [2]: < 0.035 µM

CCc1nc2ccc(Cl)cn2c1C(=O)NCc1ccc2c(c1)CCN(Cc1ccc(C(F)(F)F)nc1)C2
MIC [1]: 0.047 µM (≈ 0.0248 µg/mL)
MIC [2]: < 0.035 µM

CCc1nc2ccc(Cl)cn2c1C(=O)NCc1ccc2c(c1)CN(Cc1ccc(OC(F)(F)F)cc1)C2
MIC [1]: < 0.035 µM
MIC [2]: < 0.035 µM

CCc1nc2ccc(Cl)cn2c1C(=O)NCc1ccc2c(c1)CCN(Cc1ccc(OC)cc1)C2
MIC [1]: < 0.035 µM
MIC [2]: < 0.035 µM

CCc1nc2cc(Cl)ccn2c1C(=O)NCc1ccc2c(c1)CCN(CCc1ccc(C(F)(F)F)cn1)C2
MIC [1]: 0.061 µM (≈ 0.0331 µg/mL)
MIC [2]: < 0.035 µM

CCc1nc2ccc(Cl)cn2c1C(=O)NCc1ccc2c(c1)CCN(CCc1ccc(C(F)(F)F)nc1)C2
MIC [1]: < 0.035 µM
MIC [2]: < 0.035 µM

CCc1nc2cc(Cl)ccn2c1C(=O)NCc1ccc2c(c1)CCN(Cc1ccc([N+](=O)[O-])o1)C2
MIC [1]: 0.44 µM (≈ 0.217 µg/mL)
MIC [2]: 1.24 µM (≈ 0.612 µg/mL)

NNC(=O)c1ccncc1 [ISONIAZID]
MIC [1]: > 40 µM
MIC [2]: > 40 µM

O=c1nc(N2CCN(CC3CCCCC3)CC2)sc2c([N+](=O)[O-])cc(C(F)(F)F)cc12 [MACOZINONE]
MIC [1]: < 0.035 µM
MIC [2]: < 0.035 µM

CO[C@H]1/C=C/O[C@@]2(C)Oc3c(C)c(O)c4c(O)c(c(/C=N/N5CCN(C)CC5)c(O)c4c3C2=O)NC(=O)/C(C)=C\C=C\[C@H](C)[C@H](O)[C@@H](C)[C@@H](O)[C@@H](C)[C@H](OC(C)=O)[C@@H]1C [RIFAMPIN]
MIC [1]: > 40 µM
MIC [2]: > 40 µM

CCc1nc2ccc(Cl)cn2c1C(=O)NCc1ccc(N2CCC(c3ccc(OC(F)(F)F)cc3)CC2)cc1 [TELACEBEC]
MIC [1]: < 0.035 µM
MIC [2]: < 0.035 µM
